Values of other authors as cited in US20100303937A1, “NOVEL COMPOSITION TO INCREASE TESTOSTERONE LEVELS” (priority 2009, published 2010).

Conditions: humans; prior art U.S. Pat. No. 5,880,117

C[C@]12CC[C@H]3[C@@H](CCC4=C[C@@H](O)CC[C@@]43C)[C@@H]1CC[C@@H]2O [4-androstene-3β, 17β-diol]
time within which concentration peaks after administration: ≤ 90 min
